Laboratory results published in patent US20100159496A1, “EVALUATION METHOD FOR PHOTOSYNTHESIS SAMPLE, EVALUATION SYSTEM FOR PHOTOSYNTHESIS SAMPLE, AND EVALUATION PROGRAM FOR PHOTOSYNTHESIS SAMPLE” (HAMAMATSU PHOTONICS K.K., priority 2006, published 2010).

How the values were obtained:
Type in all cases: cell-based
[1] = test system: Pseudokircheneriella subcapitata; test: Delayed luminescence of P. subcapitata exposed to simazine, fitted by Formula (1); set-up: key to Computed value E: E computed by Formula (2) from fitted coefficients ai, bi, ci; settings: for luminescence amount of delayed luminescence, exposed vs not exposed: 15 minutes after exposure (FIG. 14); for Fitting formula value a1 / Fitting formula value a2 / Fitting formula value a3 / Fitting formula value b1 / Fitting formula value b2 / Fitting formula value b3 / Fitting formula value c1 / Fitting formula value c2 / Fitting formula value c3: 15 minutes after exposure; for Computed value E: Formula (2) from coefficients of Table 2; for Area value (quadrature by parts): third function f3(t), t=0 to 90, Δt 0.1
Protocol: In the present example, the measurement of delayed luminescence was carried out as follows. 2.5 mL of a P. subcapitata cell suspension, adjusted to have an absorbance at 660 nm of 0.2 in a general, 10×10 mm spectrometric cell, was exposed to simazine of any of various concentrations and left to stand for 15 minutes under a white fluorescent lamp of a light amount of 50 μmol·m−2·s−1. Thereafter, inside the measuring device 10, a red light (660 nm) of approximately 300 μmol·m−2·s−1 was illuminated for 10 seconds from the light source 18 as the excitation light for making delayed luminescence be emitted and then the delayed luminescence emitted after extinguishing of the excitation light was recorded for 50 seconds at 0.1 second intervals.
In the present example, the above-described Formula (1) was used for fitting. As examples for description of the fitting results, the measurement result for the “Not exposed” case is shown in FIG. 15A and a graph of the results of fitting to the measurement data are shown in FIG. 15B. In FIG. 15B, f1(t), f2(t), and f3(t) are respectively the first function, the second function, and the third function in Formula (1). From FIG. 15, it can be understood that the delayed luminescence measurement data can be fitted by a plurality of hill-shaped function.
By the fitting, the function coefficients, ai, bi, and ci (i=1, 2, 3) are determined.
As another example of the evaluating step, a case of evaluating by an evaluation value computed based on a computation formula shall be described. As the evaluation value, an evaluation value E is computed from the determined coefficient values ai, bi, and ci (i=1, 2, 3) and based on Formula (2) described above. Here, the constants mj (j=1 to 9) are set, for example, so that m1=1/a3, m2=1, m3=1, m4=1/a2, m5=1/b2, m6=1/c2, m7=1, m8=1/a1, m9=1/c1. As the constants mj, those that are appropriate according to the measurement conditions and algae species can be set. If instead of using all of the coefficient values, only a portion is to be used as described above, a reciprocal of a coefficient value, such as 1/a3, is set to the corresponding mj (j=1 to 9) for each coefficient value to be ignored.
As another example of the evaluating step, a case of evaluating by an area value computed based on the coefficient values of a function shall be described. As mentioned above, the area value is the value of the area of a region surrounded by the curve indicating the function value in the function graph and the time axis line positioned below the curve indicating the function value. The area value of a function is deeply related to the luminescence amount of the photon component expressed by the function. In the present example, based on the coefficient values obtained from the results of exposing simazine to P. subcapitata shown in Table 2, area values were determined for the third function f3(t) in Formula (1) in a range of t=0 to 90 by quadrature by parts with at interval Δt being set equal to 0.1.

[2] = test system: Pseudokircheneriella subcapitata; test: Algae growth inhibition, area under growth curve, P. subcapitata; settings: 72 hours after exposure, various simazine concentrations (FIG. 13)
Protocol: In the present embodiment, the area under the growth curve is the area under the growth curve obtained by culturing 6 mL of an P. subcapitata cell suspension, adjusted to have an absorbance at 750 nm of 0.01, under a white fluorescent lamp (50 μmol·m−2·s−1) for 72 hours after chemical substance exposure and measuring, every 24 hours, the cell density as the absorbance at 750 nm.

Spirulina platensis = test: Algae growth inhibition, area under growth curve (OECD Test Guideline 201), S. platensis; settings: 72 hours after exposure, various simazine concentrations (FIG. 9)
Protocol: The area under the growth curve indicates cell growth, which is a conventional evaluation index of chemical substance impact on algae and is computed in compliance to a method for evaluating the impact of a chemical substance on a general algae (OECD Test Guideline 201). That is, the area under the growth curve is the area under the growth curve obtained by culturing 6 mL of an S. platensis cell suspension, adjusted to have an absorbance at 750 nm of 0.03, under a white fluorescent lamp (50 μmol·m−2·s−1) for 72 hours after chemical substance exposure and measuring, every 24 hours, a cell density as the absorbance at 750 nm.

[3] = simazine exposure concentration 5 μg/L
[4] = simazine exposure concentration 25 μg/L
[5] = simazine exposure concentration 50 μg/L
[6] = simazine exposure concentration 100 μg/L

`CCNc1nc(Cl)nc(NCC)n1` [Simazine, simazine] was tested, and the “variation of evaluation value c3 with simazine exposure concentration” value ([1]; P. subcapitata (FIG. 16)) was “decreases in accordance with the simazine exposure concentration”, the “variation of computed value E with simazine exposure concentration” value ([1]; P. subcapitata (FIG. 17)) was “decreases in accordance with the simazine exposure concentration” and the “variation of area value with simazine exposure concentration” value ([1]; P. subcapitata (FIG. 18)) was “decreases in accordance with the simazine exposure concentration”. The “luminescence amount of delayed luminescence, exposed vs not exposed” value ([1]; early time period (near 0 seconds) of time after excitation) was “increases”, the “luminescence amount of delayed luminescence, exposed vs not exposed” value ([1]; later time period (5 seconds onward) after excitation) was “decreases” and the “Fitting formula value a1” value [1, 3] was 0.05. The “Fitting formula value a2” value [1, 3] was 0.0037, the “Fitting formula value a3” value [1, 3] was 0.0005 and the “Fitting formula value b1” value [1, 3] was −0.5. For the same molecule, the “Fitting formula value b2” value [1, 3] was −0.5, the “Fitting formula value b3” value [1, 3] was 6 and the “Fitting formula value c1” value [1, 3] was 5.2. For the same molecule, the “Fitting formula value c2” value [1, 3] was 4.15, the “Fitting formula value c3” value [1, 3] was 3 and the “Computed value E” value [1, 3] was 360. The “Area value (quadrature by parts)” value [1, 3] was 24112.1, the “Fitting formula value a1” value [1, 4] was 0.05 and the “Fitting formula value a2” value [1, 4] was 0.0035. The “Fitting formula value a3” value [1, 4] was 0.0004, the “Fitting formula value b1” value [1, 4] was −0.5 and the “Fitting formula value b2” value [1, 4] was −0.5. For the same molecule, the “Fitting formula value b3” value [1, 4] was 5, the “Fitting formula value c1” value [1, 4] was 5.2 and the “Fitting formula value c2” value [1, 4] was 4.1. For the same molecule, the “Fitting formula value c3” value [1, 4] was 2.9, the “Computed value E” value [1, 4] was 290 and the “Area value (quadrature by parts)” value [1, 4] was 19665.7. The “Fitting formula value a1” value [1, 5] was 0.08, the “Fitting formula value a2” value [1, 5] was 0.0044 and the “Fitting formula value a3” value [1, 5] was 0.0005. For the same molecule, the “Fitting formula value b1” value [1, 5] was −0.5, the “Fitting formula value b2” value [1, 5] was −0.5 and the “Fitting formula value b3” value [1, 5] was 3. For the same molecule, the “Fitting formula value c1” value [1, 5] was 5.4, the “Fitting formula value c2” value [1, 5] was 4.1 and the “Fitting formula value c3” value [1, 5] was 2.9. The “Computed value E” value [1, 5] was 108.75, the “Area value (quadrature by parts)” value [1, 5] was 16520.1 and the “Fitting formula value a1” value [1, 6] was 0.1. For the same molecule, the “Fitting formula value a2” value [1, 6] was 0.005, the “Fitting formula value a3” value [1, 6] was 0.005 and the “Fitting formula value b1” value [1, 6] was −0.5. The “Fitting formula value b2” value [1, 6] was −0.5, the “Fitting formula value b3” value [1, 6] was 3 and the “Fitting formula value c1” value [1, 6] was 5.6. For the same molecule, the “Fitting formula value c2” value [1, 6] was 4.1, the “Fitting formula value c3” value [1, 6] was 2.7 and the “Computed value E” value [1, 6] was 81. The “Area value (quadrature by parts)” value [1, 6] was 4435.7, the “cell growth (area under the growth curve)” value [2] was “inhibited according to the exposure concentration of simazine” and the “cell growth (area under the growth curve)” value (Spirulina platensis) was “inhibited according to the exposure concentration of simazine”.
